# Activity calls are given as the source filed them. The calls are words filed in the database; no cut-off is given here.
# Experiments:
# Trypanosoma cruzi [1] = assay: Inhibition of mitochondrial membrane potential in Trypanosoma cruzi MHOM/Pe/2011/Arequipa(DTU V) epimastigote form at IC25 concentration after 72 hrs by Rho (FITC-A) staining based flow cytometric analysis; type: functional
# Trypanosoma cruzi [2] = assay: Antitrypanosomal activity against Trypanosoma cruzi MHOM/Pe/2011/Arequipa(DTU V) epimastigote form assessed as disruption of D-lactate level at IC25 concentration incubated for 72 hrs by NMR spectrometric analysis; type: functional, organism-based
# Trypanosoma cruzi [3] = assay: Antitrypanosomal activity against Trypanosoma cruzi MHOM/Pe/2011/Arequipa(DTU V) epimastigote form assessed as disruption of L-alanine level at IC25 concentration incubated for 72 hrs by NMR spectrometric analysis; type: functional, organism-based
# Trypanosoma cruzi [4] = assay: Antitrypanosomal activity against Trypanosoma cruzi MHOM/Pe/2011/Arequipa(DTU V) epimastigote form assessed as disruption of succinic acid level at IC25 concentration incubated for 72 hrs by NMR spectrometric analysis; type: functional, organism-based
# Trypanosoma cruzi [5] = assay: Antitrypanosomal activity against Trypanosoma cruzi MHOM/Pe/2011/Arequipa(DTU V) epimastigote form assessed as disruption of ethanol end product level at IC25 concentration incubated for 72 hrs by NMR spectrometric analysis; type: functional, organism-based
# [6] = Toxicity in BALB/c mouse infected with Trypanosomal Trypanosoma cruzi MHOM/Pe/2011/Arequipa(DTU V) assessed as reduction in weight at 20 mg/kg, po administered for 5 days starting at 100 days post infection and measured up to 145 days post infection; type: organism-based; settings: in vivo, 120 h, time 5 day
# [7] = Toxicity in BALB/c mouse infected with Trypanosomal Trypanosoma cruzi MHOM/Pe/2011/Arequipa(DTU V) assessed as reduction in weight at 20 mg/kg, po administered for 5 days starting at 9 days post infection and measured up to 145 days post infection; type: organism-based; settings: in vivo, 120 h, time 5 day
# [8] = Toxicity in BALB/c mouse infected with Trypanosomal Trypanosoma cruzi MHOM/Pe/2011/Arequipa(DTU V) assessed as reduction in survival at 20 mg/kg, po administered for 5 days starting at 100 days post infection and measured up to 145 days post infection; type: organism-based; settings: in vivo, 120 h, time 5 day
# [9] = Toxicity in BALB/c mouse infected with Trypanosomal Trypanosoma cruzi MHOM/Pe/2011/Arequipa(DTU V) assessed as effect on ALP level at 20 mg/kg, po administered for 5 days starting at 100 days post infection and measured after 2 days post treatment; type: organism-based; settings: in vivo, 120 h, time 5 day
# [10] = Toxicity in BALB/c mouse infected with Trypanosomal Trypanosoma cruzi MHOM/Pe/2011/Arequipa(DTU V) assessed as effect on […] level at 20 mg/kg, po administered for 5 days starting at 100 days post infection and measured after 2 days post treatment; type: organism-based; settings: in vivo, 120 h, time 5 day
# [11] = Toxicity in BALB/c mouse infected with Trypanosomal Trypanosoma cruzi MHOM/Pe/2011/Arequipa(DTU V) assessed as effect on urea level at 20 mg/kg, po administered for 5 days starting at 100 days post infection and measured after 2 days post treatment; type: organism-based; settings: in vivo, 120 h, time 5 day
# [12] = Toxicity in BALB/c mouse infected with Trypanosomal Trypanosoma cruzi MHOM/Pe/2011/Arequipa(DTU V) assessed as effect on total bilirubin level at 20 mg/kg, po administered for 5 days starting at 9 days post infection and measured after 2 days post treatment; type: organism-based; settings: in vivo, 120 h, time 5 day
# [13] = Toxicity in BALB/c mouse infected with Trypanosomal Trypanosoma cruzi MHOM/Pe/2011/Arequipa(DTU V) assessed as effect on CK-MB level at 20 mg/kg, po administered for 5 days starting at 9 days post infection and measured after 2 days post treatment; type: organism-based; settings: in vivo, 120 h, time 5 day
# [14] = Toxicity in BALB/c mouse infected with Trypanosomal Trypanosoma cruzi MHOM/Pe/2011/Arequipa(DTU V) assessed as effect on uric acid level at 20 mg/kg, po administered for 5 days starting at 9 days post infection and measured after 2 days post treatment; type: organism-based; settings: in vivo, 120 h, time 5 day
# Trypanosoma cruzi [15] = assay: Antitrypanosomal activity against Trypanosoma cruzi MHOM/Pe/2011/Arequipa(DTU V) amastigote form infected in BALB/c mouse assessed as parasite free organ tissue ratio at 20 mg/kg, po administered for 5 days starting at 9 days post infection and measured up to 145 days post infection by PCR analysis relative to control; type: functional; settings: time 5 day
# Trypanosoma cruzi [16] = assay: Antitrypanosomal activity against Trypanosoma cruzi MHOM/Pe/2011/Arequipa(DTU V) amastigote form infected in BALB/c mouse assessed as reactivation parasitaemia at 20 mg/kg, po administered for 5 days starting at 9 days post infection and measured up to 145 days post infection relative to control; type: functional
# Trypanosoma cruzi [17] = assay: Antitrypanosomal activity against Trypanosoma cruzi MHOM/Pe/2011/Arequipa(DTU V) amastigote form infected in BALB/c mouse assessed as reduction in parasitaemia at 20 mg/kg, po for 5 days and measured after 55 days post infection; type: functional, organism-based; settings: time 5.0 day
# Trypanosoma cruzi [18] = assay: Antitrypanosomal activity against Trypanosoma cruzi MHOM/Pe/2011/Arequipa(DTU V) amastigote form infected in Vero cells assessed as parasite growth inhibition at 50 uM incubated for 72 hrs by Giemsa-staining based assay relative to control; type: functional
# [19] = Selectivity index, ratio of IC50 for cytotoxicity against African green monkey Vero cells to IC50 for antitrypanosomal activity against Trypanosoma cruzi TINF/CH/1956/Tulahuen (DTU VI) blood stream trypomastigote form; type: toxicity, cell-based; settings: read-out: Ratio IC50
# [20] = Selectivity index, ratio of IC50 for cytotoxicity against African green monkey Vero cells to IC50 for antitrypanosomal activity against Trypanosoma cruzi IRHOD/CO/2008/SN3 (DTU I) amastigote form infected in Vero cells; type: toxicity, cell-based; settings: read-out: Ratio IC50
# [21] = Selectivity index, ratio of IC50 for cytotoxicity against African green monkey Vero cells to IC50 for antitrypanosomal activity against Trypanosoma cruzi IRHOD/CO/2008/SN3 (DTU I) epimastigote form; type: toxicity, cell-based; settings: read-out: Ratio IC50
# [22] = Selectivity index, ratio of IC50 for cytotoxicity against African green monkey Vero cells to IC50 for antitrypanosomal activity against Trypanosoma cruzi MHOM/Pe/2011/Arequipa(DTU V) amastigote form infected in Vero cells; type: toxicity, cell-based; settings: read-out: Ratio IC50
# [23] = Selectivity index, ratio of IC50 for cytotoxicity against African green monkey Vero cells to IC50 for antitrypanosomal activity against Trypanosoma cruzi MHOM/Pe/2011/Arequipa(DTU V) epimastigote form; type: toxicity, cell-based; settings: read-out: Ratio IC50
# Trypanosoma cruzi [24] = assay: Antitrypanosomal activity against Trypanosoma cruzi TINF/CH/1956/Tulahuen (DTU VI) amastigote form infected in Vero cells assessed as parasite growth inhibition incubated for 72 hrs by Giemsa-staining based assay; type: functional, organism-based
# Trypanosoma cruzi [25] = assay: Antitrypanosomal activity against Trypanosoma cruzi IRHOD/CO/2008/SN3 (DTU I) blood stream trypomastigote form assessed as parasite growth inhibition incubated for 24 hrs by resazurin dye based assay; type: functional, organism-based
# Trypanosoma cruzi [26] = assay: Antitrypanosomal activity against Trypanosoma cruzi MHOM/Pe/2011/Arequipa(DTU V) epimastigote form assessed as parasite growth inhibition incubated for 48 hrs by resazurin dye based assay; type: functional, organism-based
# Trypanosoma cruzi [27] = assay: Antitrypanosomal activity against Trypanosoma cruzi MHOM/Pe/2011/Arequipa(DTU V) amastigote form infected in BALB/c mouse assessed as reduction in spleen enlargement at 20 mg/kg, po administered for 5 days starting at 100 days post infection and measured after 145 days post infection; type: functional, organism-based; settings: time 5.0 day
# Trypanosoma cruzi [28] = assay: Antitrypanosomal activity against Trypanosoma cruzi MHOM/Pe/2011/Arequipa(DTU V) amastigote form infected in BALB/c mouse assessed as reduction in parasite growth at 20 mg/kg, po administered for 5 days starting at 100 days post infection and measured up to 106 days post infection by ELISA assay; type: functional, organism-based; settings: time 5.0 day
Structure (SMILES),inhibition (Trypanosoma cruzi [1]) [%],Activity (Trypanosoma cruzi [2]),Activity (Trypanosoma cruzi [3]),Activity (Trypanosoma cruzi [4]),Activity (Trypanosoma cruzi [5]),Activity [6],Activity [7],Activity [8],Activity [9],Activity [10],Activity [11],Activity [12],Activity [13],Activity [14],Activity (Trypanosoma cruzi [15]) [%],Activity (Trypanosoma cruzi [17]),inhibition at 50 µM (Trypanosoma cruzi [18]) [%],selectivity ratio [19],selectivity ratio [20],selectivity ratio [21],other results
CC(C)c1cc(C=O)c([C@@]2(C)CCCC(C)(C)C2=O)cc1O,41.8,inactive,inactive,Active,Active,Non-Toxic,Non-Toxic,Non-Toxic,Non-Toxic,Non-Toxic,Non-Toxic,Non-Toxic,Non-Toxic,Non-Toxic,28.5,Active,100,> 40,> 40,> 15,Activity (Trypanosoma cruzi [16]; time 5.0 day): Active; selectivity ratio [22]: > 40; selectivity ratio [23]: > 15; IC50 (Trypanosoma cruzi [24]): 8.8 µM; IC50 (Trypanosoma cruzi [25]): 8.7 µM; IC50 (Trypanosoma cruzi [26]): 18.5 µM
COC(=O)[C@]1(C)CCC[C@]2(C)C3=C(C=C[C@@H]12)C(=O)C(C(C)C)=CC3=O,50,inactive,inactive,Active,Active,Non-Toxic,Non-Toxic,Non-Toxic,Non-Toxic,Non-Toxic,Non-Toxic,Non-Toxic,Non-Toxic,Non-Toxic,57.1,Active,100,> 40,> 40,> 15,Activity (Trypanosoma cruzi [27]): Active; Activity (Trypanosoma cruzi [28]): Active; Activity (Trypanosoma cruzi [16]; time 5 day): 52%; selectivity ratio [22]: > 40; selectivity ratio [23]: > 15; IC50 (Trypanosoma cruzi [24]): 7.1 µM; IC50 (Trypanosoma cruzi [25]): 1.8 µM; IC50 (Trypanosoma cruzi [26]): 1.4 µM

# Reference: ChEMBL document CHEMBL4673334, “In Vivo Biological Evaluation of a Synthetic Royleanone Derivative as a Promising Fast-Acting Trypanocidal Agent by Inducing Mitochondrial-Dependent Necrosis” (J Nat Prod, 2020)
